Experimental data published in PubChem BioAssay AID179 (DTP/NCI, 2004).
pEC50, pIC50: −log10 of the molar value. Activity calls are given as the source filed them.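 How the source made its calls: active means compounds giving half or more protection of infected cells from virus-caused growth loss, again on retest; inactive means the rest.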 Where a SMILES comes first, the peptide text is derived from it.

Test system: CEM cells HIV-1 protection, formazan growth assay
Assay: NCI AIDS Antiviral Assay
Details: for pIC50: measured here: growth of uninfected CEM cells
Summary of the method: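 Steps: treat uninfected and HIV-1-infected human CEM cells at five drug levels; quantify growth by soluble formazan; retest any compound reaching 50% protection; classify actives from the retest.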

Structure (SMILES) | pEC50 | pIC50 | outcome
CO[C@H]1/C=C/O[C@@]2(C)Oc3c(C)c(O)c4c(O)c(c(/C=N/N5C(C)CN(Cc6ccc(C#N)cc6)CC5C)c(O)c4c3C2=O)NC(=O)/C(C)=C\C=C\[C@H](C)[C@H](O)[C@@H](C)[C@@H](O)[C@@H](C)[C@H](OC(C)=O)[C@@H]1C (some centres not stated) | < 3.70 | 5.04 | 
COP(=O)(OC)C(C)(C)NC(=O)NC(F)(F)F | < 3.70 | < 3.70 | 
CN1C(=O)CNC(=O)c2ncn(C3OC(CO)C(O)C3O)c21 (configuration not stated) | < 3.64 | < 3.64 | 
C/C(=N\NC(=S)N/N=C(\C)c1ccccn1)c1ccccn1 | < 3.70 | 5.88 | 
C=C1CC(C)(Cn2cnc3c(N)ncnc32)OC1=O (configuration not stated) | < 3.70 | 4.95 | 
CC(=O)OC1CC2C(=O)C(=O)C1(C)C2(C)C (configuration not stated) | < 3.70 | < 3.70 | 
COc1cc(N)c2nc(C(O)C(O)C(O)CO)cnc2c1 (configuration not stated) | < 3.07 | 3.21 | 
CC(C)CCc1n[nH]c(=O)n1/N=C\c1ccccc1 | < 3.70 | 4.18 | 
Cc1nc2c(c(=O)[nH]1)C1CCCCCCCN1C(=S)N2C (configuration not stated) | < 3.70 | 3.88 | 
CC(C)=CC(=O)OC1C2C(C)=CC(O)C(O)C2(C)C2C3(O)OCC24C(CC(=O)OC14)C(C)C3O (configuration not stated) | < 5.70 | 7.04 | 
CCO[C@H]1N(C2CC(N=[N+]=[N-])C(CO)O2)C(=O)NC(=O)[C@]1(C)Cl (some centres not stated) | < 3.70 | < 3.70 | 
[N-]=[N+]=Nc1cccc(-c2n[nH]c(Cl)cc2=O)c1 | < 3.70 | < 3.70 | 
CO[C@H]1C[C@@H]2CC[C@@H](C)[C@@](O)(O2)C(=O)C(=O)N2CCCC[C@H]2C(=O)O[C@H]([C@H](C)C[C@@H]2CC[C@@H](O)[C@H](OC)C2)CC(=O)[C@H](C)C=C(C)[C@@H](O)[C@@H](OC)C(=O)[C@H](C)C[C@H](C)/C=C/C=C/C=C1C | < 4.85 | 5.12 | 
C[n+]1c2ccccc2c(NC(CCC(N)=O)C(=O)O)c2ccccc21 (configuration not stated) |  |  | inactive
Cc1ccc(S(=O)(=O)N2CCSCCSCCN(S(=O)(=O)c3ccc(C)cc3)CCN(S(=O)(=O)c3ccc(C)cc3)CC2)cc1 | < 4.85 | < 4.85 | 
CCC(C)C(N)C(=O)NCC(=O)NC(CCCN=C(N)N)C(=O)NC(CC(N)=O)C(=O)NC(CC(C)C)C(=O)NC(CC(C)C)C(=O)NC(C(=O)NC(CCC(N)=O)C(=O)NC(C(=O)NCC(=O)O)C(C)CC)C(C)O (configuration not stated) (H-IGRNLLTQIG-OH; configuration not given here) |  |  | inactive
CC1N=C(c2ccccn2)C(c2ccccn2)=NC1c1ccccc1 (configuration not stated) | < 4.10 | < 4.10 | 
COc1ccc(NC(=O)CC(=O)Nc2ccc(OC)cc2)cc1 | 3.77 | < 3.70 | 
O=S1(=O)C=C(c2ccccc2)C2(c3ccccc3)C=NNC21 (configuration not stated) | < 3.70 | < 3.70 | 
O=C(CCc1nnc2s/c(=C\c3ccccc3[N+](=O)[O-])c(=O)n12)Nc1cc(Cl)c(Cl)cc1Cl | < 5.70 | < 5.70 | 
CC1(O)C=CC2CCC1C2O (configuration not stated) | < 2.79 | < 2.79 | 
NC1=CN(CCCO)C2=N/C(=C\c3ccco3)C(=O)N12 |  |  | inactive
N#Cc1c[nH]c(=O)[nH]c1=O | < 3.70 | < 3.70 | 
COC(=O)c1ccc(OCc2ccc3nc(-c4ccccc4)c(Cl)nc3c2)cc1 | < 3.70 | < 3.70 | 

Structure (SMILES) | pEC50 | pIC50 | outcome
CC=C=C(C)CN | < 3.35 | < 3.35 | 
CCC[CH2][Sn]1([CH2]CCC)[O]N=C(c2ccccc2)C(c2ccccc2)[O]1 (configuration not stated) | < 4.71 | 5.61 | 
CC(=O)OC1C[N+]2(CCc3ccccc3)CCC1CC2 (configuration not stated) | < 3.15 | < 3.15 | 
NC(Cc1ccc(S(=O)(=O)O)cc1)C(=O)NC(Cc1ccc(S(=O)(=O)O)cc1)C(=O)O (configuration not stated) | < 3.70 | < 3.70 | 
N.N.O=C([O-])P(=O)([O-])[O-].[Na+].[Pt+4] | < 2.38 | 3.81 | 
C=CCn1c(=O)c2ccccc2[n+]2c(C)c(C(=O)OCC)sc12 | 3.88 | < 3.70 | 
CC#CCCC1CCCCN(C(=O)OC)C1OCC (configuration not stated) | < 3.03 | 3.78 | 
CSc1cc(Cl)c(C)cc1S(=O)(=O)n1cc[nH]c1=O | < 3.70 | < 3.70 | 
CC1(C)OCC(/C=C\C(O)CC2(C)OCCO2)CO1 (configuration not stated) |  |  | inactive
O=C1CCCC(O)=C1SC1=C(O)CCCC1=O |  |  | inactive
O=P1(O)Cc2ccccc2-c2ccccc21 | < 3.70 | < 3.70 | 
NC(=O)N/N=C1\CC2C3CC4C2C4C13 (configuration not stated) | < 3.70 | < 3.70 | 
CN1C(=O)CCCCCCCCCCSc2ccccc21 | < 3.70 | 4.39 | 
O=C(Nc1ccc(S(=O)(=O)Nc2ccc(N=Nc3ccc(S(=O)(=O)Nc4nccs4)cc3)cc2)cc1)C(N1CC1)(N1CC1)N1CC1 | < 3.70 | 3.89 | 
O=c1oc2ccccc2c(O)c1Cc1cccc(Cc2c(O)c3ccccc3oc2=O)c1 |  |  | active
COc1ccc(C2C(C#N)=C(S)N(C3OC(CO)C(O)C(O)C3O)C(C)=C2C(C)=O)cc1 (configuration not stated) | < 3.70 | 4.05 | 
CC1OC(n2cc(C(F)(F)F)c(=O)[nH]c2=O)C=CC1=O (configuration not stated) | < 3.35 | 5.47 | 
CCCCCCCCCCCCCCCCCCCCC(C(=O)OCC)S(=O)(=O)O (configuration not stated) | < 4.00 | 4.71 | 
C=C1CC2(CCOc3ccc(Cl)cc32)OC1=O (configuration not stated) | < 3.43 | 6.01 | 
CCCCCCCCCCCCCCCCSS(=O)(=O)CCCCCCCC | < 4.13 | < 4.13 | 
C=CCC12CC(OC)C(O)CC1(O)OC(c1cc(OC)c(OC)c(OC)c1)C2C (configuration not stated) | < 3.70 | < 3.70 | 
CN(C)c1ccc(/C=c2\sc3nnc(-c4ccco4)n3c2=O)cc1 | < 4.95 | < 4.95 | 
CC(=O)OCC1OC(SC2=N/C(=C\c3ccc(Br)s3)C(=O)N2CN2CCOCC2)C(OC(C)=O)C(OC(C)=O)C1OC(C)=O (configuration not stated) | < 3.70 | 5.03 | 
O=S(=O)(NC1CCC[C@H]1O)c1ccccc1 (some centres not stated) |  |  | inactive

Structure (SMILES) | pEC50 | pIC50 | outcome
O=c1nc2[nH]c3c4cccc5cccc(c3nc2c(=O)[nH]1)c54 | < 3.70 | 6.22 | 
O=c1cc(Cl)c(=O)n(-c2ccccc2)[nH]1 | < 2.95 | 2.97 | 
N/C(=N\N=C(/N)C(F)(F)F)C(F)(F)F | < 3.70 | < 3.70 | 
C=CCNc1nc2c(s1)c(C)c(O)c1ccccc12 | < 3.70 | 5.45 | 
COC(=O)C1C=NNC1C(=O)OC (configuration not stated) |  |  | inactive
N#Cc1c(Nc2nc3ccccc3s2)c2ccccc2n2c1nc1ccccc12 | < 3.70 | < 3.70 | 
CCOC(=O)Nc1nc2cc(C(=O)OC)n(C)c2s1 | < 3.70 | < 3.70 | 
Cc1cc(=O)n2c(n1)sc1ccc3ccccc3c12 | < 3.70 | < 3.70 | 
Cc1cc2c(C)nn(Cc3ccc(Cl)cc3Cl)c2c(C#N)c1C | < 4.68 | < 4.68 | 
COc1c(C)cc(C(=O)c2cc(C)c(OC)c(Br)c2)cc1Br | < 4.00 | 4.02 | 
O=C(N/N=C\C(F)(F)F)c1ccncc1 | < 3.70 | 5.45 | 
OCCCN(Cc1ccccc1)CC(O)c1ccc(OCc2ccccc2)c(OCc2ccccc2)c1 (configuration not stated) | < 3.70 | 5.02 | 
c1csc(-c2nn3c(C45CC6CC(CC(C6)C4)C5)nnc3s2)c1 | < 3.70 | < 3.70 | 
COCc1c(C(=O)NCCO)[n+](=O)c2ccccc2n1[O-] | < 4.06 | < 4.06 | 
CCOC(=O)[C@H]1CSC[C@@H](C(=O)OC)N1 | < 3.25 | < 3.25 | 
COc1cc(C(=O)Oc2c(C#N)sc3c2c(=O)n(-c2ccccc2)c(=S)n3-c2ccccc2)cc(OC)c1OC | < 3.70 | 6.21 | 
COc1cc2c(cc1OC)CN1CCCc3cc(OC)c(OC)cc3C1C2 (configuration not stated) | < 3.70 | 4.49 | 
CCOC(=O)c1c(O)cn2c1[nH]c1cccc3cccc2c31 | < 4.00 | 4.59 | 
CC1CCCN(CCSSCCN2CCCC(C)C2)C1 (configuration not stated) | < 3.70 | 4.15 | 
COc1ccc(Nc2ccnc3cc(Cl)ccc23)cc1CCN | < 4.05 | < 4.05 | 
C=CCNC(=S)Nc1ccccn1 | < 3.70 | < 3.70 | 
CN1C(=O)CN2C(Cl)(Cl)C2(c2ccccc2)c2cc(Cl)ccc21 (configuration not stated) | < 3.70 | 3.92 | 
